Patent US20170057958A1, “ENANTIOMERS OF THE N-(2-AMINO-5-FLUORO-2-METHYLPENTYL)-8-[(2,6-DIFLUOROBENZYL)OXY]-2-METHYLIMIDAZO[1,2-A]PYRIDINE-3-CARBOXAMIDE, AS WELL AS OF THE DI- AND TRIFLUORO DERIVATIVES FOR THE TREATMENT OF CARDIOVASCULAR DISEASES” (BAYER PHARMA AKTIENGESELLSCHAFT, priority 2014, published 2017)

Tested on: recombinant guanylate cyclase reporter cell line
Assay: Effect on a recombinant guanylate cyclase reporter cell line
Format: cell-based
Conditions: in some cases mean values for individual determinations
Protocol: B-2. Effect on a Recombinant Guanylate Cyclase Reporter Cell Line
The cellular activity of the compounds according to the invention is determined using a recombinant guanylate cyclase reporter cell line, as described in F. Wunder et al., Anal. Biochem. 339, 104-112 (2005).
Representative MEC values (MEC=minimum effective concentration) for the compounds of the invention are shown in the table below (in some cases as mean values for individual determinations): […]

Row | SMILES | MEC (minimum effective concentration)
1 | Cc1nc2c(OCc3c(F)cccc3F)cccn2c1C(=O)NCC(C)(N)CCCF (single isomer, unassigned; enantiomer a) [Example 1, ent-N-(2-amino-5-fluoro-2-methylpentyl)-8-[(2,6-difluorobenzyl)oxy]-2-methylimidazo[1,2-a]pyridine-3-carboxamide (enantiomer A)] | 0.3 µM
2 | Cc1nc2c(OCc3c(F)cccc3F)cccn2c1C(=O)NCC(C)(N)CC(F)F (single isomer, unassigned; enantiomer a) [Example 3, ent-N-(2-amino-4,4-difluoro-2-methylbutyl)-8-[(2,6-difluorobenzyl)oxy]-2-methylimidazo[1,2-a]pyridine-3-carboxamide (enantiomer A)] | 0.3 µM
3 | Cc1nc2c(OCc3c(F)cccc3F)cccn2c1C(=O)NCC(C)(N)CCC(F)(F)F (single isomer, unassigned; enantiomer a) [Example 5, ent-N-(2-amino-5,5,5-trifluoro-2-methylpentyl)-8-[(2,6-difluorobenzyl)oxy]-2-methylimidazo[1,2-a]pyridine-3-carboxamide (enantiomer A)] | 0.1 µM
4 | Cc1nc2c(OCc3c(F)cccc3F)cccn2c1C(=O)NCC(C)(N)CCCF (single isomer, unassigned; enantiomer b) [Example 2, ent-N-(2-amino-5-fluoro-2-methylpentyl)-8-[(2,6-difluorobenzyl)oxy]-2-methylimidazo[1,2-a]pyridine-3-carboxamide (enantiomer B)] | 0.3 µM
5 | Cc1nc2c(OCc3c(F)cccc3F)cccn2c1C(=O)NCC(C)(N)CC(F)F (single isomer, unassigned; enantiomer b) [Example 4, ent-N-(2-amino-4,4-difluoro-2-methylbutyl)-8-[(2,6-difluorobenzyl)oxy]-2-methylimidazo[1,2-a]pyridine-3-carboxamide (enantiomer B)] | 0.3 µM
6 | Cc1nc2c(OCc3c(F)cccc3F)cccn2c1C(=O)NCC(C)(N)CCC(F)(F)F (single isomer, unassigned; enantiomer b) [Example 6, ent-N-(2-amino-5,5,5-trifluoro-2-methylpentyl)-8-[(2,6-difluorobenzyl)oxy]-2-methylimidazo[1,2-a]pyridine-3-carboxamide (enantiomer B)] | 0.03 µM
7 | Cc1nc2c(OCc3c(F)ccc(F)c3F)cccn2c1C(=O)NCC(C)(N)CCC(F)(F)F (single isomer, unassigned; enantiomer b) [Example 7, ent-N-(2-amino-5,5,5-trifluoro-2-methylpentyl)-2-methyl-8-[(2,3,6-trifluorobenzyl)oxy]imidazo[1,2-a]pyridine-3-carboxamide (enantiomer B)] | 0.09 µM
